Target: T1, PI3Kα (Homo sapiens, UniProt P42336)
T1 construct: gene PIK3CA
Test: Kinase-Glo Plus luminescence kinase assay, […] ATP
Type: biochemical

T1 sequence (P42336 whole entry): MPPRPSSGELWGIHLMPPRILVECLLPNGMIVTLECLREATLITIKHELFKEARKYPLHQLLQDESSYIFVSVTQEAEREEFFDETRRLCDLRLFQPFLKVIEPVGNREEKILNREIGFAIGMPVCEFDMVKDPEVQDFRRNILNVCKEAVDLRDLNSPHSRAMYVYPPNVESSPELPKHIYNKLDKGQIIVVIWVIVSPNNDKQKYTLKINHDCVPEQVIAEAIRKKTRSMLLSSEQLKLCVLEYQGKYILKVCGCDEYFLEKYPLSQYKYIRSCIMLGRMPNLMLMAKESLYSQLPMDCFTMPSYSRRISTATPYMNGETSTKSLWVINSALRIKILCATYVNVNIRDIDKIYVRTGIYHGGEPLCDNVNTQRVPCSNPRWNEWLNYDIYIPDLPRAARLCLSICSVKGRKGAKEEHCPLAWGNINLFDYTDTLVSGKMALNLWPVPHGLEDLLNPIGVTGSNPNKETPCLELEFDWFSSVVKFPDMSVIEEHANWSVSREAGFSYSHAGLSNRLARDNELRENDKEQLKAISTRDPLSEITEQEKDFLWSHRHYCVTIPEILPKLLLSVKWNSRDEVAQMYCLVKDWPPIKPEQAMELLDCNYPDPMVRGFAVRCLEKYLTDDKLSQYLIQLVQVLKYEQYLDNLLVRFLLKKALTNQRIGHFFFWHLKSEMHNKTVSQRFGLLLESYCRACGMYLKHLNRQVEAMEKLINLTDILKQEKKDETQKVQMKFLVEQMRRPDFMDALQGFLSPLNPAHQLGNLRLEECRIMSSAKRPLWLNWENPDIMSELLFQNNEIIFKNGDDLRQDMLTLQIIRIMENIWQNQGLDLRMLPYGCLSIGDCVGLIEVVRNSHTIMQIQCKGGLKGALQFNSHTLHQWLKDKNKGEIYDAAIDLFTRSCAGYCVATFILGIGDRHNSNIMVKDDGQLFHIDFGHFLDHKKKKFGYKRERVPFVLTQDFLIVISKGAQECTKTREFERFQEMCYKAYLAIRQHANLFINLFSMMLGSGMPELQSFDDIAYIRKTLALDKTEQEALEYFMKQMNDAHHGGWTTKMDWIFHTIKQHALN

SMILES | IC50
COc1cccc2c1nc(C(F)(F)F)n2-c1nc(N2CCOCC2)nc(N(C)C2CCN(S(C)(=O)=O)CC2)n1 [compound 86, 4-(4-Methoxy-2-(trifluoromethyl)-1H-benzo[d]imidazol-1-yl)-N-methyl-N-(1-(methylsulfonyl)piperidin-4-yl)-6-morpholino-1,3,5-triazin-2-amine] | 22.8 ± 0.4 nM
CCOc1cccc2c1nc(C(F)(F)F)n2-c1nc(N2CCOCC2)nc(N(C)C2CCN(S(C)(=O)=O)CC2)n1 [compound 87, 4-(4-Ethoxy-2-(trifluoromethyl)-1H-benzo[d]imidazol-1-yl)-N-methyl-N-(1-(methylsulfonyl)piperidin-4-yl)-6-morpholino-1,3,5-triazin-2-amine] | 33.6 ± 2.7 nM

— article PMC8777764, “Design, Synthesis, Biological Evaluation, and Molecular Modeling of 2-Difluoromethylbenzimidazole Derivatives as Potential PI3Kα Inhibitors” (Molecules, 2022)
